The target in data set [1] is T1, ERK2 (Homo sapiens, UniProt P28482).
T1 construct: purchased R&D 1879-KS-010
Briefly: ERK2 enzyme activity test (ADP-Glo Kinase Assay). It counts as biochemical. The note with it: ADP-Glo chemiluminescence. As for the experimental part:
(§1) The purpose of this experiment is to detect the inhibitory ability of the compounds of the present disclosure on the ERK2 enzyme activity, and to evaluate the in vitro activity of the compounds based on the IC50. The ADP-Glo™ Kinase Assay Kit was used in this experiment. The substrate was phosphorylated under the action of the enzyme and ADP was produced at the same time. The ADP-Glo reagent was added to remove the unreacted ATP in the reaction system, and the ADP produced by the reaction was detected with kinase detection reagent. In the presence of the compound, the inhibition rate of the compound was calculated by measuring the signal value.
Preparation of enzyme and substrate: ERK2 (1879-KS-010, R&D) and substrate (custom peptide, Gill Biochemical) were prepared to 0.75 ng/ml and 1500 μM in a buffer (40 mM Tris, 20 mM MgCl2, 0.1 mg/ml BSA, 50 μM DTT), and then the enzyme solution and the substrate solution were prepared into a mixed solution at a volume ratio of 2:1 for later use. ATP was diluted to 500 μM with buffer. The compound was dissolved in DMSO (dimethyl sulfoxide, Shanghai Titan Scientific Co., Ltd.) to prepare a stock solution with an initial concentration of 20 mM, and then Bravo was used to prepare the compound. Finally, 3 μL of a mixed solution of enzyme and substrate, and 1 μL substrate of different concentrations of the compound (the initial concentration is 50 μM, 4-fold dilution) were added to each well of the 384-well plate, and the plate was incubated at 30° C. for 10 minutes, and finally 1 μL 500 μM ATP solution was added to each well, and the plate was incubated at 30° C. for 2 hours. Then 5 μL of ADP-Glo was added, and the plate was incubated at 30° C. for 40 minutes. Then 10 μL of kinase detection buffer was added, and the plate was incubated at 30° C. for 40 minutes. The 384-well plate was taken out and placed in a microplate reader (BMG labtech, PHERAstar FS), and the chemiluminescence was measured by a microplate reader.
(§2) Microsoft Excel, Graphpad Prism 5 was used to process and analyze the data.
(In ADP-Glo the light output rises with the ADP produced.)

Data set [2] has as its system Colo205 cells. The data set is described as follows: In vitro proliferation inhibition test on Colo205 tumor cells (CellTiter-Glo). Format: cell-based. The note with it: Homo sapiens, COLO 205, 72 h; Colo205 cell proliferation, 3 days of culture, CTG. As for the experimental part:
The purpose of this experiment is to test the inhibitory activity of the compounds of the present disclosure on the proliferation of Colo205 cells (CCL-222, ATCC) in vitro. The cells were treated in vitro with different concentrations of the compounds. After 3 days of culture, the cell proliferation was tested with CTG (CellTiter-Glo® Luminescent Cell Viability Assay, Promega, Catalog No. G7573) reagent, and the in vitro activity of the compounds was evaluated according to the ICso value.
In the following, the in vitro proliferation inhibition test method of Colo205 cells is taken as an example to illustrate the method for testing the in vitro proliferation inhibitory activity of the compounds of the present disclosure on tumor cells. This method is also applicable to, but not limited to, the in vitro proliferation inhibitory activity test on other tumor cells.
Colo205 cells were digested, centrifuged and then resuspended. The single cell suspension was mixed well, and the density of viable cells was adjusted to 5.0×10^4 cells/ml with cell culture medium (RPMI1640+2% FBS), and 95 μL/well was added to a 96-well cell culture plate. Only 100 μL medium was added to the peripheral wells of the 96-well plate. The culture plate was incubated in an incubator for 24 hours (37° C., 5% CO2).
The compound was dissolved in DMSO (dimethyl sulfoxide, Shanghai Titan Scientific Co., Ltd.) and prepared as a stock solution with an initial concentration of 20 mM. The initial concentration of the small molecule compound was 2 mM, and then 4-fold diluted into 9 points, and the 10th point was DMSO. Another 96-well plate was taken, and 90 μL of cell culture medium (RPMI1640+2% FBS) was added to each well. Then 10 μL of different concentrations of the test sample was added to each well. The mixture was mixed well, and then 5μL of different concentrations of the test sample was added to the cell culture plate. Each sample has two duplicate holes. The culture plate was incubated in the incubator for 3 days (37° C., 5% CO2). The 96-well cell culture plate was taken out. 50 μL solution of CTG was added to each well, and the plate was incubated for 10 minutes at room temperature. In a microplate reader (BMG labtech, PHERAstar FS), chemiluminescence was measured with the microplate reader.
as §2
A general note: In ATP-based viability assays light output follows the ATP content of the culture.

The target in data set [3] is T2, ERK1 (Homo sapiens, UniProt P27361).
T2 construct: purchased R&D 1879-KS-010
The data set is described as follows: ERK1 enzyme activity test (ADP-Glo Kinase Assay). The note with it: ADP-Glo chemiluminescence. Format: biochemical. The procedure:
as §1, with “ERK1” for “ERK2”, “activity” for “activity,”
Preparation of Enzyme and substrate: ERK1 (1879-KS-010, R&D) and substrate (AS-61777, anaspec) were prepared to 0.75 ng/p1 and 100 μM respectively in a buffer, and then the enzyme solution and the substrate solution were prepared into a mixed solution at a volume ratio of 2:1 for later use. ATP was diluted to 300 μM with buffer. The compound was dissolved in DMSO (dimethyl sulfoxide, Shanghai Titan Scientific Co., Ltd.) to prepare a stock solution with an initial concentration of 20 mM, and then Bravo was used to prepare the compound. Finally, 3 μL of a mixed solution of enzyme and substrate, and 1 μL of different concentrations of the compound (the initial concentration was 50 μM, 4-fold dilution) were added to each well of the 384-well plate, and the plate was incubated at 30° C. for 10 minutes, and finally 1 μL of 300 μM ATP solution was added to each well, and the plate was incubated at 30° C. for 2 hours. Then 5 μL of ADP-Glo was added, and the plate was incubated at 30° C. for 40 minutes. Then 10 μL of kinase detection buffer was added, and the plate was incubated at 30° C. for 40 minutes. The 384-well plate was taken out and placed in a microplate reader (BMG labtech, PHERAstar FS), and the chemiluminescence was measured by a microplate reader.
as §2

Data set [4] is described as follows: Pharmacokinetics assay in mice. It counts as in vivo. Conditions: female, mouse, po, C57 mice, intragastric, 2 mg/kg, plasma. As for the experimental part:
Mice were used as test animals. The drug concentration in plasma at different time points was determined by LC/MS/MS method after administration of the compounds 1-P2, 2-P2, 4-P2, 6-P2, 9-P2, 10-P2 and 11-P2. The pharmacokinetic behavior of the compounds of the present disclosure was studied and evaluated in mice.
Sixty-three C57 mice (female, equally divided into seven groups) were purchased from Shanghai Jiesijie Laboratory Animal Co., LTD. (Certificate No.: SCXK(Shanghai)2013-0006).
A certain amount of the test compound was weighed, dissolved in 5% of DMSO by volume and 5% of tween 80, followed by the additon of 90% of normal saline to prepare a 0.1 mg/mL colorless, clear and transparent solution.
After an overnight fast, C57 mice were intragastrically administered the test compound at an administration dose of 2 mg/kg and an administration volume of 0.2 ml/10 g.
The mice were intragastrically administered the test compounds. 0.1 ml of blood was taken before the administration and at 0.25, 0.5, 1.0, 2.0, 4.0, 6.0, 8.0, 11.0 and 24.0 hours after the administration. The samples were stored in heparinized tubes, and centrifuged for 10 minutes at 3500 rpm to separate the blood plasma. The plasma samples were stored at −20° C.
The content of the test compound in the plasma of mice after intragastrical administration of the test compound at different concentrations was determined: 25 μL of […] plasma at each time point after the administration was taken, followed by the addition of 50 μL of the internal standard camptothecin solution (100ng/mL) and 200 μL of acetonitrile. The resulting solution was vortex-mixed for 5 minutes, and centrifuged for 10 minutes (4000 rpm). 4 μL of the supernatant was taken from the plasma samples for LC/MS/MS analysis.

SMILES strings stand for the structures.

The text below walks through data of patent US20220204512A1, “SUBSTITUTED FUSED BICYCLIC DERIVATIVE, PREPARATION METHOD THEREFOR, AND APPLICATION THEREOF IN MEDICINES” (Jiangsu Hengrui Medicine Co., Ltd., priority 2019, published 2022).

T1 sequence (P28482 2-360 limits assumed): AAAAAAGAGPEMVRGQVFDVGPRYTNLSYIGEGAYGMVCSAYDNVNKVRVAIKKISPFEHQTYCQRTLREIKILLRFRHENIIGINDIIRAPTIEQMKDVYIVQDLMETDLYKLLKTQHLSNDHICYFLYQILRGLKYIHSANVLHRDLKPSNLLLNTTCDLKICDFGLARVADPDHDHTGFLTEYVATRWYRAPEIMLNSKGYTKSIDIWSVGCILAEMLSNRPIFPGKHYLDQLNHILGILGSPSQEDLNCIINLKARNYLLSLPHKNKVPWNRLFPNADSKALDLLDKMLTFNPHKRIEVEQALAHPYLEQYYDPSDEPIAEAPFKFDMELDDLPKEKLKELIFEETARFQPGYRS
T2 sequence (P27361 whole entry): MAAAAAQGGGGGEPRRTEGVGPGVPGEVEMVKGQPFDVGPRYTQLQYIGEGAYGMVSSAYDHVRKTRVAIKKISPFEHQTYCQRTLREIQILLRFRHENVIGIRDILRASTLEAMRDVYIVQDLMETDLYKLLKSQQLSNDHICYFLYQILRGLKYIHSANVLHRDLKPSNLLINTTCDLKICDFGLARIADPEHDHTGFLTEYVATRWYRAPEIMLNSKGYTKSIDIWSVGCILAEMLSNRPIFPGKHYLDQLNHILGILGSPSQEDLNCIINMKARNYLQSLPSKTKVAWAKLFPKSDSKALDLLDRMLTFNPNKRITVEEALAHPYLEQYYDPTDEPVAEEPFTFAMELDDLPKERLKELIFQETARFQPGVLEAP

Broadly, the IC50 is the concentration at which inhibition is half-maximal. Lower therefore signals greater potency. With `Cc1cccc([C@@H](CO)NC(=O)[C@@H](C)N2CCn3cc(-c4ccnc(NC5CCOCC5)n4)cc3C2=O)c1` [Example 19-P2, (R)-N-((S)-2-Hydroxy-1-(m-tolyl)ethyl)-2-(1-oxo-7-(2-((tetrahydro-2H-pyran-4-yl)amino)pyrimidin-4-yl)-3,4-dihydropyrrolo[1,2-a]pyrazin-2(1H)-yl)propanamide], the figures for the IC50 in data set [1] and in data set [2] were 6.7 nM and 67 nM, respectively.
By AUC is commonly meant the area under the concentration-time curve, a measure of exposure. The term MRT denotes the average time that molecules of a dose stay in the body. Take `COc1cc(F)cc([C@@H](CO)NC(=O)[C@@H](C)N2CCn3cc(-c4nc(NC5CCOCC5)ncc4Cl)cc3C2=O)c1` [Example 4-P2, (R)-2-(7-(5-Chloro-2-((tetrahydro-2H-pyran-4-yl)amino)pyrimidin-4-yl)-1-oxo-3,4-dihydropyrrolo[1,2-a]pyrazin-2(1H)-yl)-N-((S)-1-(3-fluoro-5-methoxyphenyl)-2-hydroxyethyl)propanamide]: the IC50 in data set [3] was found to be 3.8 nM; in data set [1] it was 1 nM; in data set [2] it was 10 nM. Further, the Vd/F in data set [4] (read-out: Apparent distribution volume Vz/F) amounted to 3.29 L/kg. The area under the curve (AUC) in data set [4] (read-out: Area under curve AUC) came out at 936 ng·h/mL. The CL/F in data set [4] (read-out: Clearance CLz/F) stood at 35.5 mL/min/kg. The half-life in data set [4] (read-out: Half-life T1/2 (converted)) was 64.2 min. The Cmax in data set [4] (read-out: Plasma concentration Cmax) turned out to be 905 ng/mL. The mean residence time (MRT) in data set [4] (read-out: Residence time MRT) was determined as 1.07 h.
With `C[C@H](C(=O)N[C@H](CO)c1cccc(Cl)c1)N1CCc2cc(-c3nc(NC4CCOCC4)ncc3Cl)cn2C1=O` [Example 16-P2, (R)-2-(6-(5-Chloro-2-((tetrahydro-2H-pyran-4-yl)amino)pyrimidin-4-yl)-1-oxo-3,4-dihydropyrrolo[1,2-c]pyrimidin-2(1H)-yl)-N-((S)-1-(3-chlorophenyl)-2-hydroxyethyl)propanamide], the IC50 was 4.2 nM in data set [1] and 54 nM in data set [2].
On to `Cc1cccc([C@@H](CO)NC(=O)[C@@H](C)N2CCn3cc(-c4nc(Nc5ccnn5C)ncc4C)cc3C2=O)c1` [Example 10-P2, (R)-N-((S)-2-Hydroxy-1-(m-tolyl)ethyl)-2-(7-(5-methyl-2-((1-methyl-1H-pyrazol-5-yl)amino)pyrimidin-4-yl)-1-oxo-3,4-dihydropyrrolo[1,2-a]pyrazin-2(1H)-yl)propanamide], for which the half-maximal inhibitory concentration (IC50) in data set [3] turned out to be 8.5 nM; in data set [1], 1.1 nM; in data set [2], 100 nM.
For the molecule `COc1cc(F)cc([C@@H](CO)NC(=O)[C@@H](C)N2CCn3cc(-c4nc(NC5CCOCC5)ncc4Cl)nc3C2=O)c1` [Example 3-P2, (R)-2-(2-(5-Chloro-2-((tetrahydro-2H-pyran-4-yl)amino)pyrimidin-4-yl)-8-oxo-5,6-dihydroimidazo[1,2-a]pyrazin-7(8H)-yl)-N-((S)-1-(3-fluoro-5-methoxyphenyl)-2-hydroxyethyl)propanamide], the IC50 turned out to be 4.6 nM in data set [3] and 1.75 nM in data set [1].
`COc1cc(F)cc([C@@H](CO)NC(=O)[C@@H](C)N2CCn3cc(-c4nc(Nc5ccnn5C)ncc4C)cc3C2=O)c1` [Example 12-P2, (R)-N-((S)-1-(3-Fluoro-5-methoxyphenyl)-2-hydroxyethyl)-2-(7-(5-methyl-2-((1-methyl-1H-pyrazol-5-yl)amino)pyrimidin-4-yl)-1-oxo-3,4-dihydropyrrolo[1,2-a]pyrazin-2(1H)-yl)propanamide]: the concentration for half-maximal inhibition (IC50) stood at 9.4 nM in data set [3], 0.9 nM in data set [1] and 82 nM in data set [2].
Consider `C[C@H](C(=O)N[C@H](CO)c1cccc(Cl)c1)N1CCn2cc(-c3nc(NC4CCOCC4)ncc3Cl)cc2C1=O` [Example 13-P2, (R)-2-(7-(5-Chloro-2-((tetrahydro-2H-pyran-4-yl)amino)pyrimidin-4-yl)-1-oxo-3,4-dihydropyrrolo[1,2-a]pyrazin-2(1H)-yl)-N—((S)-1-(3-chlorophenyl)-2-hydroxyethyl)propanamide], for which the figures for the IC50 in data set [1] and in data set [2] were 2.8 nM and 31 nM, respectively.
Take `COc1cc(F)cc([C@@H](CO)NC(=O)[C@@H](C)N2CCn3cc(-c4nc(NC5CCOCC5)ncc4C)cc3C2=O)c1` [Example 17-P2, (R)-N-((S)-1-(3-Fluoro-5-methoxyphenyl)-2-hydroxyethyl)-2-(7-(5-methyl-2-((tetrahydro-2H-pyran-4-yl)amino)pyrimidin-4-yl)-1-oxo-3,4-dihydropyrrolo[1,2-a]pyrazin-2(1H)-yl)propanamide]: the IC50 worked out at 22 nM in data set [3], 3.1 nM in data set [1] and 38 nM in data set [2].
